From PubChem BioAssay AID2253 (Southern Research Specialized Biocontainment Screening …, 2010)
Several values for one entry are separate records, joined by “and”; a condition that tells them apart may be missing. Identical values can stand only once.

tested on: THP-1 viability, CellTiter-Glo luminescence, 72 h; assay: THP-1 cell cytotoxicity, dose response, cytotoxicity control for Salmonella PhoP regulon inhibitors, S. typhimurium screen hits (AID 2253)

SMILES	EC50
CCCc1nc2c(=O)n(C)c(=O)nc-2n(C)n1	2.36 µM
O=[N+]([O-])c1cc(Cl)c2cccnc2c1O	27.7 µM
COc1cccc(-c2nnc3sc(-c4ccc(C)cc4)nn23)c1	44.3 µM
O=C(CN1CC(c2ccccc2)CC1=O)N/N=C/c1cc(Br)ccc1O (configuration not stated)	3.74 µM
NC1=NC[C@H](Cc2ccc(O)cc2)N1CCCCC1CCCCC1	2.63 µM
Cc1ccc2[nH]c3c(NCc4ccco4)ncnc3c2c1	34.7 µM
O=c1c(Br)c(Br)cnn1-c1ccccc1	1.27 µM
NC(=NCCCCCCN=C(N)/N=C(\N)Nc1ccc(Cl)cc1)/N=C(\N)Nc1ccc(Cl)cc1	3.09 µM and 3.04 µM and 2.9 µM
CCOC(=O)Cn1nnnc1C(C(C)C)N(Cc1cccs1)Cc1cc2cc(C)ccc2[nH]c1=O (configuration not stated)	10.5 µM
OCCNCc1c(OCc2ccc(Cl)cc2)ccc2ccccc12	7.52 µM
COc1ccc(OCc2n(CC(=O)OC3CC(C)CCC3C(C)C)c3ccccc3[n+]2C)cc1 (configuration not stated)	1.6 µM
Oc1c(CN2CCc3ccccc3C2)cc(Cl)c2cccnc12	8.71 µM
CCCCNCCCOc1cccc(Cl)c1Cl	29.2 µM
C=CCNc1ncnc2c1[nH]c1ccccc12	46 µM
O=C(N/N=C/c1cc(Cl)ccc1O)c1ccncc1	5.12 µM
COc1ccccc1-n1c(SCc2cc(=O)oc3cc(O)ccc23)nc2ccccc2c1=O	21.6 µM
Cc1ccc(NC(=S)NC(NC(=O)c2ccco2)C(Cl)(Cl)Cl)cc1 (configuration not stated)	19.6 µM
CCOC(=O)N1CCN(C(c2cccnc2)c2ccc3cccnc3c2O)CC1 (configuration not stated)	9.3 µM
C=CCN(C(=O)c1cccc(S(=O)(=O)N2CCN(C)CC2)c1)c1nc(-c2ccccc2)cs1	49.4 µM
c1ccc(-c2nnc(-c3ccccn3)nc2NC2CCCCC2)cc1	1.37 µM
Cc1cc(SCC(=O)N/N=C/c2ccc(O)c(O)c2O)c(C)cc1Br	2.76 µM
O=C(N/N=C\c1cccc([N+](=O)[O-])c1O)C1COc2ccccc2O1 (configuration not stated)	21.5 µM
CCCCCCCCCCCCCCCC[n+]1ccc(/C=N/O)cc1	0.37 µM

SMILES	EC50
COc1c(Cl)cnn(-c2ccc(C)cc2)c1=O	16.5 µM
O=C(C[n+]1cccc(CNC(=O)c2ccc(OC(F)F)cc2)c1)Nc1ccc(SC(F)F)cc1	11.7 µM
O=C(CSCc1ccccc1)N/N=C/c1ccccc1OCc1ccccc1	46.6 µM
ON=C1/C(=N\O)CC2(C/C1=N/O)OCCO2	34.5 µM
O=C(Oc1c(CN2CCOCC2)cc(Cl)c2cccnc12)c1ccc(F)cc1	7.06 µM
CCCCn1c(/N=C/c2c[nH]c3ccccc23)nc2ccccc21	27.2 µM
CC(C(=O)NC1CCS(=O)(=O)C1)N1C(=O)/C(=C/c2ccc(Cl)cc2)SC1=S (configuration not stated)	48.9 µM
O=[N+]([O-])c1cc(/C=N/Nc2nc3ccccc3[nH]2)c(O)cc1O	1.21 µM
Cc1nc2c(=O)n(C)c(=O)n(C)c2nc1Cl	7.48 µM
Cc1cc(N/N=C/c2cccc(Cl)c2)nc(NCc2ccccc2)n1	23.5 µM
Cc1cccc(N2CCc3c2nc2ccccc2c3N)c1	47.6 µM
COc1ccc(/C=C/C(=O)NC(=S)NNC(=O)c2cnccn2)cc1	2.02 µM
CN(c1ccccc1)S(=O)(=O)c1cc(C(=O)Nc2nc3ccccc3[nH]2)ccc1Cl	24.1 µM
C=CCc1ccccc1OCC(O)CN1CCN(CCN2C(=O)c3cccc4cccc(c34)C2=O)CC1 (configuration not stated)	16.8 µM
CCN(CC)c1ccc(/C=N/NC(=S)NCc2ccccc2)c(O)c1	7.54 µM
Cc1nc2c(=O)n(C)c(=O)nc-2n(C)n1	1.22 µM
CCOC(=O)c1ccc(-c2ccc(C3Nc4ccccc4C(=O)N3O)o2)cc1 (configuration not stated)	9.38 µM
O=C(C[n+]1cc(-c2ccc(Cl)cc2)n2c1CCC2)Nc1nc(-c2ccccc2)cs1	43.3 µM
COc1cc([N+](=O)[O-])cc(/C=N/NC(=O)c2cccnc2)c1O	32 µM
O=C(NNC(=O)c1cnccn1)c1ccc(Cl)cc1	24.5 µM
CC1CCCC(C)N1/N=C/c1c[nH]c2ccc(Br)cc12 (configuration not stated)	14.4 µM
N#C/C(=C\c1c(Cl)cccc1Cl)c1nc2ccccc2[nH]1	27.9 µM
Cn1c(-c2ccc3c(c2)OCO3)cnc1NCc1cccc(Cl)c1	15.5 µM

SMILES	EC50
O=C(N/N=C/c1c[nH]c2ccccc12)c1cc(-c2ccc3ccccc3c2)n[nH]1	3.02 µM
COc1cccc(/C=N\NC(=O)Cn2nnc3ccccc32)c1O	10.9 µM
CC(C)(C)c1ccc(C(=O)NC(=S)NCc2cccnc2)cc1	46.5 µM
O=[N+]([O-])c1ccc(-n2nnnc2-c2ccccc2)c([N+](=O)[O-])c1	10.1 µM
COc1ccccc1-c1c(C#N)c(N)nc2c1CCc1ccccc1-2	13.2 µM
C#CCOc1ccc(/C=C2\SC(=S)N(Cc3cccnc3)C2=O)cc1	5.67 µM
CC[n+]1c(/C=C/c2ccc(N(C)C)cc2)ccc2ccccc21	0.64 µM
CC(C(=O)Nc1cc([N+](=O)[O-])ccc1Cl)N1CCN(c2ccccc2O)CC1 (configuration not stated)	25.6 µM
Nc1nc2ccccc2n1Cc1ccc(Cl)c(Cl)c1	24.4 µM
COc1ccc(C)cc1NC(=O)C(Sc1nnc(-c2ccncc2)n1-c1ccc(Cl)cc1)c1ccccc1 (configuration not stated)	22 µM
CCc1ccc(S(=O)(=O)/N=C2/C=C(Sc3ncn[nH]3)C(=O)c3ccccc32)cc1	4.28 µM
CCCCCCCCCCOC(=O)Cn1c(COc2ccc(C)cc2)[n+](C)c2ccccc21	3.37 µM
COc1ccc(N(C(=O)CCl)C(C(=O)NCCc2ccccc2)c2cccs2)cc1 (configuration not stated)	3.46 µM
COc1cc(C(=O)Oc2c(CN3CCOCC3)cc(Cl)c3cccnc23)cc(OC)c1OC	4.46 µM
CCN(CC)CCOc1ccc2c(c1)C(=NNC(=O)c1ccccn1)c1cc(OCCN(CC)CC)ccc1-2	3.57 µM
O=C(N/N=C/c1ccc(O)cc1O)/C(=C/c1ccccc1)CCO	4.05 µM
CCc1ccc(CNc2ccc(O)cc2)cc1	17.1 µM
Oc1ccccc1CN1CCCN(Cc2ccccc2O)C1	23.8 µM
COc1cccc(Nc2nc(-c3sc(NC(=O)c4ccco4)nc3C)cs2)c1	40.5 µM
CCCCCNCC(=O)Nc1cccc(C(=O)Nc2cccc(C(F)(F)F)c2)c1	12.4 µM
Cc1nc(N)nc(N)c1/C=C/C(C)(C)c1ccc(Cl)cc1	< 0.1 µM
O=C(c1[nH]ncc1-c1ccc(Cl)cc1)C1CO1 (configuration not stated)	13.3 µM
CCc1ccc(Nc2nc(N)nc(CSc3nc4ccccc4s3)n2)cc1	33.8 µM

SMILES	EC50
CNC[C@H](CC1CCCCC1)NC[C@H](Cc1ccccc1)NCCC12CC3CC(CC(C3)C1)C2	3.28 µM
CC[C@H]1OC(=O)C[C@@H](O)[C@H](C)[C@@H](O[C@@H]2O[C@H](C)C[C@H](N(C)C)[C@H]2O)[C@@H](CC=O)C[C@@H](C)C(=O)C=C[C@]2(C)O[C@H]2[C@@H]1C	11.9 µM
Oc1ccccc1NCC(O)Cn1ccc2ccccc21 (configuration not stated)	28 µM
O=C(Nc1nnc(-c2cccs2)o1)c1cccc(Oc2ccccc2)c1	19.6 µM
COc1ccccc1/C=C1\CCCC2=C1Nc1nnnn1C2c1ccccc1OC (configuration not stated)	19.6 µM
Cc1sc2ncnc(N/N=C/c3ccccc3O)c2c1C	0.51 µM
c1ccc2c(c1)Sc1ccccc1N2CC1CN2CCC1CC2 (configuration not stated)	7.93 µM
C[C@H]1c2cccc(O)c2C(O)=C2C(=O)[C@]3(O)C(O)=C(C(N)=O)C(=O)[C@@H](N(C)C)C3[C@@H](O)C21 (some centres not stated)	30.7 µM
O=C(Nc1ccc(S(=O)(=O)N2CCCC2)cc1)c1ccc(CN2CCc3ccccc3C2)cc1	26.5 µM
O=C1NC2=C(CCc3ccccc32)C(c2ccc(Br)cc2)N1 (configuration not stated)	19.3 µM
Cc1cc(Nc2ccccc2)nc2cc(O)ccc12	36.6 µM
CC1(C)CC(=O)C2=C(C1)OC1=C(C(=O)CC(C)(C)C1)C2c1ccc(O)cc1O	5.36 µM
CCOC(=O)Cc1csc(NC(=O)NC2(C(F)(F)F)Oc3cc(Cl)c(Cl)cc3O2)n1	26 µM
O=C(N/N=C/c1cc([N+](=O)[O-])ccc1O)C1CC1	26 µM
O=C1OC(/C(=C\Nc2ccc(F)cc2F)[N+](=O)[O-])c2ccccc21 (configuration not stated)	31.7 µM
COc1ccc(-c2cn[nH]c2-c2ccc(OCc3ccc([N+](=O)[O-])cc3)cc2O)cc1	15.1 µM
Cc1cc(C(C)(C)CC(C)(C)C)ccc1OCCOCC[N+](C)(C)Cc1ccccc1	1.61 µM
C[C@H]1O[C@@H](n2cc(F)c(=O)[nH]c2=O)[C@H](O)[C@@H]1O	43.8 µM
O=C(O)C1Nc2c(O)cccc2C2C=CCC12 (configuration not stated)	22.6 µM
O=C(c1ccc(CSc2nc3ccncc3[nH]2)cc1)N1CCN(c2cccc(Cl)c2)CC1	15.3 µM
COC(=O)c1ccc(Nc2cc(C)nc3ccccc23)cc1	6.32 µM
Cc1ccc2[nH]c3c(NCc4ccccc4)ncnc3c2c1	17.1 µM
CCCCCCCCCCOC(=O)C[N+](C)(C)C/C=C(/C)Cl	8.56 µM

SMILES	EC50
NC1=NC[C@H](c2ccccc2)N1CCCCC1CCCCC1	5.06 µM
CCCCOc1ccc(S(=O)(=O)NNC(=O)C2Cc3c(ccc4ccccc34)O2)cc1 (configuration not stated)	42.6 µM
COc1cnc(-c2ccccn2)[nH]c1=O	25.6 µM
CCCCCCCCCCOC(=O)Cn1c(COc2ccc(Cl)cc2)[n+](C)c2ccccc21	2.05 µM
Clc1ccc(Cn2ncc3c(NCc4ccco4)ncnc32)c(Cl)c1	6.81 µM
CC(C)(C)c1nn(-c2ccccc2)c2[nH]c(=O)c(CNCc3ccco3)cc12	49.6 µM
Cc1cc(NC(c2cccnc2)c2ccc3cccnc3c2O)no1 (configuration not stated)	1.79 µM
CN1/C(=C\C=N\NC(=O)c2ccccc2Br)C(C)(C)c2ccccc21	32.2 µM
c1ccc(C2CNCc3c2ccc2ccccc32)cc1 (configuration not stated)	11 µM
Cc1ccc(N=Nc2ccc(O)c(/C=N\NC(=O)c3ccc(N)cc3)c2)cc1C	3.29 µM
CN(C)c1ccc(O)c2c1CC1CC3C(N(C)C)C(=O)C(C(N)=O)=C(O)[C@@]3(O)C(=O)C1=C2O (some centres not stated)	36.6 µM
CC(C)c1ccc(NC(=O)N(CCc2nc3ccccc3[nH]2)C2CCCC2)cc1	43.1 µM
CC(C)NC1=C(Cl)C(=O)c2ccccc2C1=O	18.9 µM
O=S(=O)(Nc1cc(Sc2ncn[nH]2)c(O)c2ccccc12)c1ccccc1	5.35 µM
O=C(NCCCc1ccccc1)Nc1cccc(Cl)c1	37 µM
Cc1scc(C(=O)N/N=C/c2ccc([N+](=O)[O-])o2)c1C	19.9 µM
N=c1n(CC(=O)c2ccc(Br)s2)c2ccccc2n1Cc1ccccc1	7.56 µM
Cc1cc(/C=N/n2c(COc3ccccc3C)nc3ccccc3c2=O)c(O)c([N+](=O)[O-])c1	2.52 µM
CC1=NN(c2ccc(Cl)cc2)C(=O)C1C(c1cccc(O)c1)c1c(C)[nH]n(-c2ccc(Cl)cc2)c1=O (configuration not stated)	35.5 µM
CCOc1cc(/C=N/N=C(N)N)ccc1OCc1ccc(Cl)cc1	5.19 µM
